Assay results: ChEMBL document CHEMBL1151076, “Discovery of MK-0476, a potent and orally active leukotriene D4 receptor antagonist devoid of peroxisomal enxyme induction” (Bioorg Med Chem Lett, 1995)

test system: not listed separately; assay: Bioavailability in squirrel monkey; assay type: ADME, organism-based; settings: saimiri, in vivo; read-out: Bioavailabiility

bioavailability [%]	Structure (SMILES)
42	CC(C)(O)c1ccccc1CC[C@@H](SCC1(CC(=O)O)CC1)c1cccc(/C=C/c2ccc3ccc(Cl)cc3n2)c1 [MONTELUKAST]

test system: not listed separately; assay: Terminal half-life was determined; assay type: ADME; settings: not given

half-life [min]	Structure (SMILES)
240	CC(C)(O)c1ccccc1CC[C@@H](SCC1(CC(=O)O)CC1)c1cccc(/C=C/c2ccc3ccc(Cl)cc3n2)c1 [MONTELUKAST]

species: Cavia porcellus; assay: Antagonistic activity of leukotriene D4-induced contractions of non-tonal guinea-pig trachea; assay type: functional, organism-based; settings: read-out: pA2 (converted)

Structure (SMILES)	Kb [nM]
CC(C)(O)c1ccccc1CC[C@@H](SCC1(CC(=O)O)CC1)c1cccc(/C=C/c2ccc3ccc(Cl)cc3n2)c1 [MONTELUKAST]	0.501

biological target: T1, Cysteinyl leukotriene receptor 1 (Cavia porcellus, UniProt Q2NNR5); assay: Concentration required for inhibition of binding of [3H]LTD4 to guinea pig lung membranes; assay type: tissue-based, Membrane; settings: not given
T1 sequence (Q2NNR5 whole entry): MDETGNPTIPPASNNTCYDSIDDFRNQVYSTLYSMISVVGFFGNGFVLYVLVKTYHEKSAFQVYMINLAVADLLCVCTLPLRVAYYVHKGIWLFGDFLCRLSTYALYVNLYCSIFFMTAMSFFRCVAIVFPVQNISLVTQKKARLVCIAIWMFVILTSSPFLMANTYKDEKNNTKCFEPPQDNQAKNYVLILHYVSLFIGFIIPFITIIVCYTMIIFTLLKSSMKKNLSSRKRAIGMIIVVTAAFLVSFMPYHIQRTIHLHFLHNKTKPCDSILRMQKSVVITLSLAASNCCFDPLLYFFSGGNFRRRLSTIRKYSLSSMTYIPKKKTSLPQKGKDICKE

IC50 [nM]	Structure (SMILES)
0.33	C[C@@H](CC(=O)O)S[C@H](CCc1ccccc1C(C)(C)O)c1cccc(/C=C/c2ccc3ccc(Cl)cc3n2)c1
0.43	CC(CS[C@H](CCc1ccccc1C(C)(C)O)c1cccc(/C=C/c2ccc3ccc(Cl)cc3n2)c1)CC(=O)O (some centres not stated)
0.68	CC(C)(CC(=O)O)S[C@H](CCc1ccccc1C(C)(C)O)c1cccc(/C=C/c2ccc3ccc(Cl)cc3n2)c1
3.1	CN(C)C(=O)CCS[C@H](SCCC(=O)[O-])c1cccc(/C=C/c2ccc3ccc(Cl)cc3n2)c1.[Na+]
0.44	CC(S[C@H](CCc1ccccc1C(C)(C)O)c1cccc(/C=C/c2ccc3ccc(Cl)cc3n2)c1)C(C)C(=O)O (some centres not stated)
2.3	C[C@H](S[C@H](CCc1ccccc1C(C)(C)O)c1cccc(/C=C/c2ccc3ccc(Cl)cc3n2)c1)[C@@H](C)C(=O)O
0.79	CC(CC(=O)O)S[C@H](CCc1ccccc1C(C)(C)O)c1cccc(/C=C/c2ccc3ccc(Cl)cc3n2)c1 (some centres not stated)
0.3	C[C@H](C(=O)O)[C@@H](C)S[C@H](CCc1ccccc1C(C)(C)O)c1cccc(/C=C/c2ccc3ccc(Cl)cc3n2)c1
0.6	C[C@H](CC(=O)O)S[C@H](CCc1ccccc1C(C)(C)O)c1cccc(/C=C/c2ccc3ccc(Cl)cc3n2)c1
0.2	CC[C@H](CS[C@H](CCc1ccccc1C(C)(C)O)c1cccc(/C=C/c2ccc3ccc(Cl)cc3n2)c1)C(=O)O
0.58	CCC(CC(=O)O)S[C@H](CCc1ccccc1C(C)(C)O)c1cccc(/C=C/c2ccc3ccc(Cl)cc3n2)c1 (some centres not stated)
0.3	CC(C)(CS[C@H](CCc1ccccc1C(C)(C)O)c1cccc(/C=C/c2ccc3ccc(Cl)cc3n2)c1)CC(=O)O
1.5	CN(C)C(=O)CCSC(SCCC(=O)[O-])c1cccc(/C=C/c2ccc3ccc(Cl)cc3n2)c1.[Na+] (configuration not stated)

biological target: T1, Cysteinyl leukotriene receptor 1; assay: Concentration required for inhibition of binding of [3H]-LTD4 to guinea pig lung membranes (different expt); assay type: tissue-based, Membrane; settings: not given

IC50 [nM]	Structure (SMILES)
2.5	CN(C)C(=O)CCSC(SCCC(=O)[O-])c1cccc(/C=C/c2ccc3ccc(Cl)cc3n2)c1.[Na+] (configuration not stated)

test system: Mus musculus; assay: Peroxisomal enzyme induction in mice after administration of 200 mg/kg perorally for 4 days was determined.; assay type: functional; settings: route oral

Structure (SMILES)	PEI [%]
CC(CC(=O)O)S[C@H](CCc1ccccc1C(C)(C)O)c1cccc(/C=C/c2ccc3ccc(Cl)cc3n2)c1 (some centres not stated)	22
CC[C@H](CS[C@H](CCc1ccccc1C(C)(C)O)c1cccc(/C=C/c2ccc3ccc(Cl)cc3n2)c1)C(=O)O	608

test system: Mus musculus; assay: Peroxisomal enzyme induction in mice after administration of 400 mg/kg perorally for 4 days was determined.; assay type: functional; settings: route oral

Structure (SMILES)	PEI [%]
C[C@@H](CC(=O)O)S[C@H](CCc1ccccc1C(C)(C)O)c1cccc(/C=C/c2ccc3ccc(Cl)cc3n2)c1	24
CC(CS[C@H](CCc1ccccc1C(C)(C)O)c1cccc(/C=C/c2ccc3ccc(Cl)cc3n2)c1)CC(=O)O (some centres not stated)	18
CC(C)(CC(=O)O)S[C@H](CCc1ccccc1C(C)(C)O)c1cccc(/C=C/c2ccc3ccc(Cl)cc3n2)c1	-10
CN(C)C(=O)CCS[C@H](SCCC(=O)[O-])c1cccc(/C=C/c2ccc3ccc(Cl)cc3n2)c1.[Na+]	65
CC(S[C@H](CCc1ccccc1C(C)(C)O)c1cccc(/C=C/c2ccc3ccc(Cl)cc3n2)c1)C(C)C(=O)O (some centres not stated)	673
C[C@H](S[C@H](CCc1ccccc1C(C)(C)O)c1cccc(/C=C/c2ccc3ccc(Cl)cc3n2)c1)[C@@H](C)C(=O)O	393
C[C@H](C(=O)O)[C@@H](C)S[C@H](CCc1ccccc1C(C)(C)O)c1cccc(/C=C/c2ccc3ccc(Cl)cc3n2)c1	91
C[C@H](CC(=O)O)S[C@H](CCc1ccccc1C(C)(C)O)c1cccc(/C=C/c2ccc3ccc(Cl)cc3n2)c1	109
CCC(CC(=O)O)S[C@H](CCc1ccccc1C(C)(C)O)c1cccc(/C=C/c2ccc3ccc(Cl)cc3n2)c1 (some centres not stated)	188
CC(C)(CS[C@H](CCc1ccccc1C(C)(C)O)c1cccc(/C=C/c2ccc3ccc(Cl)cc3n2)c1)CC(=O)O	25
CC(C)(O)c1ccccc1CC[C@@H](SCC1(CC(=O)O)CC1)c1cccc(/C=C/c2ccc3ccc(Cl)cc3n2)c1 [MONTELUKAST]	16
CN(C)C(=O)CCSC(SCCC(=O)[O-])c1cccc(/C=C/c2ccc3ccc(Cl)cc3n2)c1.[Na+] (configuration not stated)	318

test system: Mus musculus; assay: Liver weight increase in mice after administration of 200 mg/kg perorally for 4 days was determined.; assay type: functional; settings: route oral

Structure (SMILES)	LWI [%]
CC(CC(=O)O)S[C@H](CCc1ccccc1C(C)(C)O)c1cccc(/C=C/c2ccc3ccc(Cl)cc3n2)c1 (some centres not stated)	5
CC[C@H](CS[C@H](CCc1ccccc1C(C)(C)O)c1cccc(/C=C/c2ccc3ccc(Cl)cc3n2)c1)C(=O)O	63

test system: Mus musculus; assay: Liver weight increase in mice after administration of 400 mg/kg perorally for 4 days was determined.; assay type: functional; settings: route oral

Structure (SMILES)	LWI [%]
C[C@@H](CC(=O)O)S[C@H](CCc1ccccc1C(C)(C)O)c1cccc(/C=C/c2ccc3ccc(Cl)cc3n2)c1	11
CC(CS[C@H](CCc1ccccc1C(C)(C)O)c1cccc(/C=C/c2ccc3ccc(Cl)cc3n2)c1)CC(=O)O (some centres not stated)	10
CC(C)(CC(=O)O)S[C@H](CCc1ccccc1C(C)(C)O)c1cccc(/C=C/c2ccc3ccc(Cl)cc3n2)c1	3
CN(C)C(=O)CCS[C@H](SCCC(=O)[O-])c1cccc(/C=C/c2ccc3ccc(Cl)cc3n2)c1.[Na+]	0
CC(S[C@H](CCc1ccccc1C(C)(C)O)c1cccc(/C=C/c2ccc3ccc(Cl)cc3n2)c1)C(C)C(=O)O (some centres not stated)	27
C[C@H](S[C@H](CCc1ccccc1C(C)(C)O)c1cccc(/C=C/c2ccc3ccc(Cl)cc3n2)c1)[C@@H](C)C(=O)O	32
C[C@H](C(=O)O)[C@@H](C)S[C@H](CCc1ccccc1C(C)(C)O)c1cccc(/C=C/c2ccc3ccc(Cl)cc3n2)c1	10
C[C@H](CC(=O)O)S[C@H](CCc1ccccc1C(C)(C)O)c1cccc(/C=C/c2ccc3ccc(Cl)cc3n2)c1	12
CCC(CC(=O)O)S[C@H](CCc1ccccc1C(C)(C)O)c1cccc(/C=C/c2ccc3ccc(Cl)cc3n2)c1 (some centres not stated)	9
CC(C)(CS[C@H](CCc1ccccc1C(C)(C)O)c1cccc(/C=C/c2ccc3ccc(Cl)cc3n2)c1)CC(=O)O	2
CC(C)(O)c1ccccc1CC[C@@H](SCC1(CC(=O)O)CC1)c1cccc(/C=C/c2ccc3ccc(Cl)cc3n2)c1 [MONTELUKAST]	0
CN(C)C(=O)CCSC(SCCC(=O)[O-])c1cccc(/C=C/c2ccc3ccc(Cl)cc3n2)c1.[Na+] (configuration not stated)	38

test system: not listed separately; assay: Reduction in the decrease in dynamic compliance after 4 hr of administration of 0.01 mg/kg to squirrel monkey; assay type: functional; settings: not given

Structure (SMILES)	Reduction [%]
CC(C)(O)c1ccccc1CC[C@@H](SCC1(CC(=O)O)CC1)c1cccc(/C=C/c2ccc3ccc(Cl)cc3n2)c1 [MONTELUKAST]	78

test system: not listed separately; assay: Reduction of the increase in pulmonary resistance after 4 hr of administration of 0.01 mg/kg to squirrel monkey; assay type: functional; settings: not given

Structure (SMILES)	Reduction [%]
CC(C)(O)c1ccccc1CC[C@@H](SCC1(CC(=O)O)CC1)c1cccc(/C=C/c2ccc3ccc(Cl)cc3n2)c1 [MONTELUKAST]	56
